Experimental data from US11648254B2 (Kumquat Biosciences Inc., priority 2021, dated 2023).
Where two headings read alike, the source gives them in different places.

Assays:
[1] = target: SOS1 (Homo sapiens (Human), UniProt Q07889); experiment: Ras-SOS interaction assay (HTRF); type: biochemical
[2] = test system: NCI-H1975 cells (EGFR T790M L858R); experiment: EGFR-SOS cellular inhibition assay (CellTiter-Glo, 3D); type: cell-based; conditions: Homo sapiens
[3] = test system: MIA PaCa-2 cells (K-Ras G12C); experiment: Ras-SOS cellular growth inhibition assay (CellTiter-Glo, 3D); type: cell-based; conditions: Homo sapiens
In short: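 Growth read by CellTiter-Glo luminescence about 5 days after dosing with 3-fold dilutions (9 points), added one day post-seeding. Cells: MIA PaCa-2, 3D culture on ultra-low-attachment surface, medium DMEM/Ham's F12 plus 10% FCS and 2.5% horse serum; IC50 by four-parameter fit.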

[4] = K-RasG13D utilized, read-out: IC50 inhibition of SOS
[5] = K-RasG13D, read-out: IC50 value against SOS1
[6] = 120 h, NCI-H1975, 3D proliferation, about 5 days, read-out: Bio-Cell-Prolif-3D (H1975 IC50)
[7] = NCI-H1975, EGFR T790M L858R, read-out: IC50 in inhibiting growth of NCI-H1975 cell line
[8] = MIA PaCa-2, 120 h, MIA PaCa-2, 3D proliferation, about 5 days, read-out: Bio-Cell-Prolif-3D (MiaPaca2 IC50)
[9] = MIA PaCa-2, MIA PaCa-2, read-out: IC50 in inhibiting MIA PaCa-2 cell growth

Chain of SOS1 (Q07889 564-1049): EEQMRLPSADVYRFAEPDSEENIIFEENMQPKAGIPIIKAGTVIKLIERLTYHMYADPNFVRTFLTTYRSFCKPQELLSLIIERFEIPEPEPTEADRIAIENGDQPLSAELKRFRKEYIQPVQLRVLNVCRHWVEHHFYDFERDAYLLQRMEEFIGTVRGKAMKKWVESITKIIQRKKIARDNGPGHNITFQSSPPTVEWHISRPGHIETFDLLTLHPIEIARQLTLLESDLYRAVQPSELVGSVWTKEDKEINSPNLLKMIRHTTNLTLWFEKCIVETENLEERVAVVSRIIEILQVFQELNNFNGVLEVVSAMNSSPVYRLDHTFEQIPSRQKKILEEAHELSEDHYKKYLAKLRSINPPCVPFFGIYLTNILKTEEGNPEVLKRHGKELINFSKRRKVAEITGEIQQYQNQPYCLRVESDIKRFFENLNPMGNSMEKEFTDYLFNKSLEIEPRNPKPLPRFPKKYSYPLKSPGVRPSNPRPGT

Row | IC50 [1, 4] [nM] | IC50 [1, 5] [nM] | IC50 [2, 6] [nM] | IC50 [2, 7] [nM] | IC50 [3, 8] [nM] | IC50 [3, 9] [nM] | SMILES
1 | < 100 | < 50 | ≤ 1000 | < 500 | ≤ 1000 | < 500 | CCN1CCN(c2cc3c(N[C@H](C)c4cccc(C(F)(F)F)c4C)ncnc3nc2OC)CC1 [Compound 198, (R)-6-(4-ethylpiperazin-1-yl)-7-methoxy-N-(1-(2-methyl-3-(trifluoromethyl)phenyl)ethyl)pyrido[2,3-d]pyrimidin-4-amine]
2 | < 100 | < 50 | ≤ 1000 | < 500 | ≤ 1000 | < 500 | CCN1CCC(c2cc3c(N[C@H](C)c4cccc(C(F)(F)F)c4F)ncnc3nc2OC)CC1 [Compound 199, (R)-6-(1-ethylpiperidin-4-yl)-N-(1-(2-fluoro-3-(trifluoromethyl)phenyl)ethyl)-7-methoxypyrido[2,3-d]pyrimidin-4-amine]
3 | < 100 | < 50 | ≤ 1000 |  | 1000 to 10000 |  | COc1nc2nc(OCC3CN(C)C3)nc(N[C@H](C)c3cccc(C(F)F)c3F)c2cc1C1(C#N)CC1 [Compound 203, (R)-1-(4-((1-(3-(difluoromethyl)-2-fluorophenyl)ethyl)amino)-7-methoxy-2-((1-methylazetidin-3-yl)methoxy)pyrido[2,3-d]pyrimidin-6-yl)cyclopropane-1-carbonitrile]
4 | < 100 | < 50 | ≤ 1000 | < 500 | ≤ 1000 | < 500 | COc1nc2ncnc(N[C@H](C)c3cccc(C(F)(F)CO)c3F)c2cc1N1CCN(C(C)C)CC1 [Compound 204, (R)-2,2-difluoro-2-(2-fluoro-3-(1-((6-(4-isopropylpiperazin-1-yl)-7-methoxypyrido[2,3-d]pyrimidin-4-yl)amino)ethyl)phenyl)ethan-1-ol]
5 | < 100 | < 50 | ≤ 1000 | < 500 | ≤ 1000 | < 500 | COc1nc2ncnc(N[C@H](C)c3cccc(C(F)(F)CO)c3)c2cc1N1CCN(C(C)C)CC1 [Compound 205, (R)-2,2-difluoro-2-(3-(1-((6-(4-isopropylpiperazin-1-yl)-7-methoxypyrido[2,3-d]pyrimidin-4-yl)amino)ethyl)phenyl)ethan-1-ol]
6 | < 100 | < 50 | ≤ 1000 | < 500 | ≤ 1000 | < 500 | COc1nc2nc(C)nc(N[C@H](C)c3cccc(C(F)(F)CO)c3F)c2cc1C1(C#N)CC1 [Compound 206, (R)-1-(4-((1-(3-(1,1-difluoro-2-hydroxyethyl)-2-fluorophenyl)ethyl)amino)-7-methoxy-2-methylpyrido[2,3-d]pyrimidin-6-yl)cyclopropane-1-carbonitrile]
7 | < 100 | < 50 | ≤ 1000 | < 500 | ≤ 1000 | < 500 | COc1nc2nc(C)nc(N[C@H](C)c3cccc(C(F)(F)C4(O)CC4)c3F)c2cc1N1CCN(C(C)C)CC1 [Compound 209, (R)-1-(difluoro(2-fluoro-3-(1-((6-(4-isopropylpiperazin-1-yl)-7-methoxy-2-methylpyrido[2,3-d]pyrimidin-4-yl)amino)ethyl)phenyl)methyl)cyclopropan-1-ol]
8 | < 100 | < 50 | ≤ 1000 | < 500 | ≤ 1000 | < 500 | COc1nc2nc(C)nc(N[C@H](C)c3cccc(C(F)(F)C4CCN(C)CC4)c3F)c2cc1C1(C#N)CC1 [Compound 210, (R)-1-(4-((1-(3-(difluoro(1-methylpiperidin-4-yl)methyl)-2-fluorophenyl)ethyl)amino)-7-methoxy-2-methylpyrido[2,3-d]pyrimidin-6-yl)cyclopropane-1-carbonitrile]
9 | < 100 | < 50 | ≤ 1000 | < 500 | ≤ 1000 | < 500 | COc1nc2nc(C)nc(N[C@H](C)c3cccc(C(F)(F)C(C)(C)O)c3)c2cc1C1CCN(C(C)C)CC1 [Compound 212, (R)-1,1-difluoro-1-(3-(1-((6-(1-isopropylpiperidin-4-yl)-7-methoxy-2-methylpyrido[2,3-d]pyrimidin-4-yl)amino)ethyl)phenyl)-2-methylpropan-2-ol]
10 | < 100 |  | ≤ 1000 |  | ≤ 1000 |  | COc1nc2nc(C)nc(N[C@H](C)c3cccc(C(F)(F)F)c3C)c2cc1C1(C#N)CC1 [Compound 213, (R)-1-(7-methoxy-2-methyl-4-((1-(2-methyl-3-(trifluoromethyl)phenyl)ethyl)amino)pyrido[2,3-d]pyrimidin-6-yl)cyclopropane-1-carbonitrile]
11 | < 100 | < 50 | ≤ 1000 | < 500 | ≤ 1000 | < 500 | COc1nc2nc(C)nc(N[C@H](C)c3cccc(C(C)(F)F)c3F)c2cc1N1CCS(=O)(=O)CC1 [Compound 215, (R)-4-(4-((1-(3-(1,1-difluoroethyl)-2-fluorophenyl)ethyl)amino)-7-methoxy-2-methylpyrido[2,3-d]pyrimidin-6-yl)thiomorpholine 1,1-dioxide]
12 |  | < 50 | ≤ 1000 | < 500 | ≤ 1000 |  | COc1nc2nc(CCN3CCC3)nc(N[C@H](C)c3cccc(C(F)(F)F)c3F)c2cc1C1(C#N)CC1 [Compound 217, (R)-1-(2-(2-(azetidin-1-yl)ethyl)-4-((1-(2-fluoro-3-(trifluoromethyl)phenyl)ethyl)amino)-7-methoxypyrido[2,3-d]pyrimidin-6-yl)cyclopropane-1-carbonitrile]
13 | < 100 | < 50 | ≤ 1000 | < 500 | ≤ 1000 | < 500 | CC(C)N1CCC(c2cc3c(N[C@H](C)c4cccc(C(F)(F)C5CCN(C(C)C)CC5)c4F)ncnc3nc2Cl)CC1 [Compound 218, (R)-7-chloro-N-(1-(3-(difluoro(1-isopropylpiperidin-4-yl)methyl)-2-fluorophenyl)ethyl)-6-(1-isopropylpiperidin-4-yl)pyrido[2,3-d]pyrimidin-4-amine]
14 | < 100 | < 50 | ≤ 1000 | < 500 | ≤ 1000 | < 500 | COc1nc2ncnc(N[C@H](C)c3cccc(C(F)(F)C4CCN(C(C)C)CC4)c3F)c2cc1C1CCN(C(C)C)CC1 [Compound 221, (R)-N-(1-(3-(difluoro(1-isopropylpiperidin-4-yl)methyl)-2-fluorophenyl)ethyl)-6-(1-isopropylpiperidin-4-yl)-7-methoxypyrido[2,3-d] pyrimidin-4-amine]
15 | < 100 | < 50 | ≤ 1000 | < 500 | ≤ 1000 | < 500 | Cc1nc(N[C@H](C)c2cccc(C(F)(F)C3CCN(C(C)C)CC3)c2F)c2cc(C3CCN(C(C)C)CC3)c(Cl)nc2n1 [Compound 222, (R)-7-chloro-N-(1-(3-(difluoro(1-isopropylpiperidin-4-yl)methyl)-2-fluorophenyl)ethyl)-6-(1-isopropylpiperidin-4-yl)-2-methylpyrido[2,3-d]pyrimidin-4-amine]
16 | < 100 | < 50 | ≤ 1000 | < 500 | ≤ 1000 | < 500 | Cc1nc(N[C@H](C)c2cccc(C(F)(F)C3CCN(C(C)C)CC3)c2F)c2cc(N3CCN(C(C)C)CC3)c(Cl)nc2n1 [Compound 223, (R)-7-chloro-N-(1-(3-(difluoro(1-isopropylpiperidin-4-yl)methyl)-2-fluorophenyl)ethyl)-6-(4-isopropylpiperazin-1-yl)-2-methylpyrido[2,3-d]pyrimidin-4-amine]
17 | < 100 | < 50 | ≤ 1000 | < 500 | ≤ 1000 | < 500 | CC(C)N1CCC(C(F)(F)c2cccc([C@@H](C)Nc3ncnc4nc(Cl)c(N5CCN(C(C)C)CC5)cc34)c2F)CC1 [Compound 224, (R)-7-chloro-N-(1-(3-(difluoro(1-isopropylpiperidin-4-yl)methyl)-2-fluorophenyl)ethyl)-6-(4-isopropylpiperazin-1-yl)pyrido[2,3-d]pyrimidin-4-amine]
18 | < 100 |  | ≤ 1000 | < 500 | 1000 to 10000 |  | Cc1nc(N[C@H](C)c2cccc(C(F)F)c2F)c2cc(C3(C#N)CC3)c(O[C@@H]3CCN(C)C3)nc2n1 [Compound 226, 1-(4-(((R)-1-(3-(difluoromethyl)-2-fluorophenyl)ethyl)amino)-2-methyl-7-(((R)-1-methylpyrrolidin-3-yl)oxy)pyrido[2,3-d]pyrimidin-6-yl)cyclopropane-1-carbonitrile]
19 | < 100 | < 50 | ≤ 1000 |  | ≤ 1000 |  | C[C@@H](Nc1ncnc2nc(OC3COC3)c(C3CCS(=O)(=O)CC3)cc12)c1cccc(C(F)F)c1F [Compound 227, (R)-4-(4-((1-(3-(difluoromethyl)-2-fluorophenyl)ethyl)amino)-7-(oxetan-3-yloxy)pyrido[2,3-d]pyrimidin-6-yl)tetrahydro-2H-thiopyran 1,1-dioxide]
